Measured values published in the NIST ThermoML archive (doi:10.1016/j.jct.2008.10.010).
Numbers after ± are expanded uncertainties.

Experiment: molar heat capacity at constant pressure; xn = mol fraction of the nth substance listed
Settings: 101.3 kPa, Liquid, Small sample (50 mg) DSC

CCC(C)(C)O [2-methylbutan-2-ol] + CCCCCCC
molar heat capacity at constant pressure [J/K/mol]
Settings | 309.15 K | 310.16 K | 311.14 K | 312.15 K | 313.16 K | 314.14 K | 315.15 K | 316.16 K | 317.14 K | 318.15 K
x1 = 0.0061 | – | 229.11 ± 3.5 | 229.41 ± 3.5 | 229.87 ± 3.6 | 230.16 ± 3.6 | 230.54 ± 3.6 | 231.04 ± 3.6 | 231.41 ± 3.6 | 231.74 ± 3.6 | 232.22 ± 3.6
x1 = 0.0249 | – | 232.84 ± 3.6 | 233.01 ± 3.6 | 233.27 ± 3.6 | 233.44 ± 3.6 | 233.76 ± 3.6 | 234.1 ± 3.6 | 234.24 ± 3.6 | 234.45 ± 3.6 | 234.79 ± 3.6
x1 = 0.0494 | – | 238.76 ± 3.7 | 238.96 ± 3.7 | 239.19 ± 3.7 | 239.44 ± 3.7 | 239.64 ± 3.7 | 239.85 ± 3.7 | 240.04 ± 3.7 | 240.17 ± 3.7 | 240.39 ± 3.7
x1 = 0.1 | – | 246.57 ± 3.8 | 246.82 ± 3.8 | 247.28 ± 3.8 | 247.62 ± 3.8 | 247.94 ± 3.8 | 248.26 ± 3.9 | 248.61 ± 3.9 | 248.85 ± 3.9 | 249.22 ± 3.9
x1 = 0.1547 | – | 251.57 ± 3.9 | 252.06 ± 3.9 | 252.56 ± 3.9 | 253.04 ± 3.9 | 253.52 ± 3.9 | 254.01 ± 3.9 | 254.44 ± 3.9 | 254.85 ± 4 | 255.3 ± 4
x1 = 0.1999 | – | 254.63 ± 3.9 | 255.2 ± 4 | 255.82 ± 4 | 256.43 ± 4 | 257.01 ± 4 | 257.6 ± 4 | 258.06 ± 4 | 258.58 ± 4 | 259.15 ± 4
x1 = 0.2993 | – | 259.26 ± 4 | 259.96 ± 4 | 260.68 ± 4 | 261.51 ± 4 | 262.2 ± 4.1 | 262.9 ± 4.1 | 263.57 ± 4.1 | 264.25 ± 4.1 | 264.95 ± 4.1
x1 = 0.4051 | – | 261.91 ± 4.1 | 262.71 ± 4.1 | 263.58 ± 4.1 | 264.53 ± 4.1 | 265.3 ± 4.1 | 266.17 ± 4.1 | 266.93 ± 4.1 | 267.74 ± 4.2 | –
x1 = 0.4986 | 262.32 ± 4.1 | 263.33 ± 4.1 | 264.23 ± 4.1 | 265.2 ± 4.1 | 266.22 ± 4.1 | 267.11 ± 4.1 | 268.03 ± 4.2 | 268.88 ± 4.2 | 269.71 ± 4.2 | –
x1 = 0.5981 | 262.83 ± 4.1 | 263.88 ± 4.1 | 264.84 ± 4.1 | 265.84 ± 4.1 | 266.9 ± 4.1 | 267.83 ± 4.2 | 268.84 ± 4.2 | 269.72 ± 4.2 | 270.72 ± 4.2 | –
x1 = 0.7015 | 262.76 ± 4.1 | 263.9 ± 4.1 | 264.89 ± 4.1 | 265.94 ± 4.1 | 267.08 ± 4.1 | 268.09 ± 4.2 | 269.07 ± 4.2 | 270.07 ± 4.2 | 271.01 ± 4.2 | –
x1 = 0.8023 | 261.98 ± 4.1 | 263.1 ± 4.1 | 264.11 ± 4.1 | 265.15 ± 4.1 | 266.27 ± 4.1 | 267.27 ± 4.1 | 268.34 ± 4.2 | 269.26 ± 4.2 | 270.34 ± 4.2 | –
x1 = 0.9139 | 260.52 ± 4 | 261.67 ± 4 | 262.65 ± 4.1 | 263.76 ± 4.1 | 264.91 ± 4.1 | 265.99 ± 4.1 | 267.02 ± 4.1 | 268 ± 4.2 | 269.05 ± 4.2 | –
x1 = 0.9609 | 259.67 ± 4 | 260.83 ± 4 | 261.81 ± 4.1 | 262.89 ± 4.1 | 264 ± 4.1 | 265.01 ± 4.1 | 266.09 ± 4.1 | 267.03 ± 4.1 | 268.07 ± 4.2 | –
